{"source": "paper PMC5905968", "about": "“Evaluation of the fusion inhibitor P3 peptide as a potential microbicide to prevent HIV transmission in women” (PLoS ONE, 2018)", "key": {"spermatozoa": {"tested_on": "spermatozoa", "assay": "Spermicidal activity: sperm motility (CASA) and viability (Eosin Y)", "assay_type": "cell-based, human", "conditions": "114 μM P3, 37°C, 0, 30, 60, 120 and 240 min, versus control without P3; donors n = 3", "experimental": "Sperm was obtained from normal donors (n = 3) after signing a written informed consent. […] Spermatozoa viability was evaluated by dye exclusion method using a solution of Eosin Y (5mg/mL). Two hundred spermatozoa were counted with a phase-contrast microscope (Olympus, Modell BH-2), differentiating the live (unstained) spermatozoa from the dead (stained) cells. Sperm motility was evaluated in a Makler chamber using a computer-aided sperm analysis system (CASA, Hamilton Thorne Research, MA, USA). At least five microscopic fields were assessed in a systematic way to classify 200 spermatozoa motility. Each spermatozoon is graded according to cell velocity: progressive motility (i.e.,>5 μm/s), non-progressive motility (<5 μm/s) and immotility."}, "[1]": {"tested_on": "E. coli (clinical strain)", "assay": "Anti-bacterial activity, MIC by agar diffusion", "assay_type": "cell-based", "conditions": "disks, Mueller-Hinton agar, 37°C, maximum concentration tested 228.4 μM", "experimental": "(§1) Anti-bacterial activity of P3 was determined according to CLSI guidelines. The following bacteria were used: reference strains E. coli ATCC 10536, Staphylococcus aureus ATCC 6538, Bacillus subtilis ATCC 6633 and Enterococcus faecalis ATCC 29212; clinical strains of E. coli and Pseudomonas aeruginosa isolated in our laboratory; and strains of Lactobacillus rhamnosus and Lactobacillus plantarum also isolated in our laboratory. The Minimum Inhibitory Concentration (MIC) was determined by the agar diffusion method, in plates of Mueller-Hinton agar or Rogosa agar (for Lactobacilli). Briefly, 10^8cfu/ml bacterial suspensions were prepared in sterile water and spread in the culture media. Sterile disks containing different concentrations of P3 were placed on the inoculated surface. Plates were incubated at 37°C for 24h or 48h. Lactobacilli were incubated at microaerophilic conditions. A negative control made of sterile water was used. Disks of amoxicillin and imipenem were used as positive controls."}, "[2]": {"tested_on": "Enterococcus faecalis ATCC 29212", "assay": "Anti-bacterial activity, MIC by agar diffusion", "assay_type": "cell-based", "conditions": "disks, Mueller-Hinton agar, 37°C, maximum concentration tested 228.4 μM", "experimental": "as §1"}, "Lactobacillus plantarum": {"tested_on": "Lactobacillus plantarum", "assay": "Anti-bacterial activity, MIC by agar diffusion", "assay_type": "cell-based", "conditions": "disks, Rogosa agar, 37°C, microaerophilic, maximum concentration tested 228.4 μM", "experimental": "as §1"}, "[3]": {"tested_on": "Pseudomonas aeruginosa (clinical strain)", "assay": "Anti-bacterial activity, MIC by agar diffusion", "assay_type": "cell-based", "conditions": "disks, Mueller-Hinton agar, 37°C, maximum concentration tested 228.4 μM", "experimental": "as §1"}, "E. coli ATCC 10536": {"tested_on": "E. coli ATCC 10536", "assay": "Anti-bacterial activity, MIC by agar diffusion", "assay_type": "cell-based", "conditions": "disks, Mueller-Hinton agar, 37°C, maximum concentration tested 228.4 μM", "experimental": "as §1"}, "[4]": {"tested_on": "Staphylococcus aureus ATCC 6538", "assay": "Anti-bacterial activity, MIC by agar diffusion", "assay_type": "cell-based", "conditions": "disks, Mueller-Hinton agar, 37°C, maximum concentration tested 228.4 μM", "experimental": "as §1"}, "Lactobacillus rhamnosus": {"tested_on": "Lactobacillus rhamnosus", "assay": "Anti-bacterial activity, MIC by agar diffusion", "assay_type": "cell-based", "conditions": "disks, Rogosa agar, 37°C, microaerophilic, maximum concentration tested 228.4 μM", "experimental": "as §1"}, "[5]": {"tested_on": "Bacillus subtilis ATCC 6633", "assay": "Anti-bacterial activity, MIC by agar diffusion", "assay_type": "cell-based", "conditions": "disks, Mueller-Hinton agar, 37°C, maximum concentration tested 228.4 μM", "experimental": "as §1"}}, "data": [{"smiles": "CC[C@H](C)[C@H](NC(=O)[C@H](CC(N)=O)NC(=O)[C@H](C)NC(=O)[C@H](CCC(=O)O)NC(=O)[C@H](CC(C)C)NC(=O)[C@H](Cc1ccc(O)cc1)NC(=O)[C@H](CCCNC(=N)N)NC(=O)[C@@H](NC(=O)[C@H](CCC(N)=O)NC(=O)[C@H](CCC(N)=O)NC(=O)[C@H](CCC(=O)O)NC(=O)[C@H](Cc1c[nH]c2ccccc12)NC(=O)[C@H](CCC(=O)O)NC(=O)[C@H](CCC(N)=O)NC(=O)[C@H](Cc1c[nH]c2ccccc12)NC(C)=O)C(C)C)C(=O)N[C@@H](CO)C(=O)N[C@@H](CCC(N)=O)C(=O)N[C@@H](CCCNC(=N)N)C(=O)N[C@@H](CC(C)C)C(=O)N[C@@H](CCC(=O)O)C(=O)N[C@@H](CCC(N)=O)C(=O)N[C@@H](C)C(=O)N[C@@H](CCC(N)=O)C(=O)N[C@H](C(=O)N[C@@H](CCC(N)=O)C(=O)N[C@@H](CCC(N)=O)C(=O)N[C@@H](CCC(=O)O)C(=O)N[C@@H](CCCCN)C(=O)N[C@@H](CC(N)=O)C(=O)N[C@@H](CCSC)C(=O)N[C@@H](Cc1ccc(O)cc1)C(=O)N[C@@H](CCC(=O)O)C(=O)N[C@@H](CC(C)C)C(=O)N[C@@H](CCC(N)=O)C(N)=O)[C@@H](C)CC", "note": "[P3]", "values": [{"measurement": "spermatozoa motility", "setting": "spermatozoa", "value": "No significant changes"}, {"measurement": "spermatozoa vitality", "setting": "spermatozoa", "value": "No significant changes"}, {"measurement": "MIC", "setting": "[1]", "value": "> 228.4", "unit": "µM"}, {"measurement": "MIC", "setting": "[2]", "value": "> 228.4", "unit": "µM"}, {"measurement": "MIC", "setting": "Lactobacillus plantarum", "value": "> 228.4", "unit": "µM"}, {"measurement": "MIC", "setting": "[3]", "value": "> 228.4", "unit": "µM"}, {"measurement": "MIC", "setting": "E. coli ATCC 10536", "value": "> 228.4", "unit": "µM"}, {"measurement": "MIC", "setting": "[4]", "value": "> 228.4", "unit": "µM"}, {"measurement": "MIC", "setting": "Lactobacillus rhamnosus", "value": "> 228.4", "unit": "µM"}, {"measurement": "MIC", "setting": "[5]", "value": "> 228.4", "unit": "µM"}]}]}
